Reference: patent US11998632B2, “Oral cannabinoid compositions and methods for treating neuropathic pain” (Avicanna Inc., priority 2019, dated 2024)

Assay: Assessment of stability: cannabinoid concentrations by HPLC on stored capsules
Conditions: 40-day incubation at 40° C., dark conditions

SMILES | stability of cannabinoid in the formulations (HPLC)
C=C(C)[C@@H]1CCC(C)=C[C@H]1c1c(O)cc(CCCCC)cc1O [CBD, cannabidiol] | remains stable
CCCCCc1cc(O)c2c(c1)OC(C)(C)[C@@H]1CCC(C)=C[C@@H]21 [THC, Tetrahydrocannabinol] | degrades significantly
